Laboratory results from ChEMBL document CHEMBL1641362, “Inhibition of P-glycoprotein-mediated Multidrug Resistance (MDR) by N,N-bis(cyclohexanol)amine aryl esters: further restriction of molecular flexibility maintains high potency and efficacy” (Bioorg Med Chem Lett, 2011).
pIC50: −log10 of the molar value.

assay: Inhibition of Pgp-mediated multidrug resistance in doxorubicin-resistant human K562 cells assessed as drug level required for 50% increase in nuclear concentration of pirarubicin by fluorescence assay; format: cell-based; conditions: read-out: I50

pIC50	SMILES
6.20	COc1cc(CCC(=O)O[C@H]2CC[C@H](N(C)[C@H]3CC[C@@H](OC(=O)c4cc(OC)c(OC)c(OC)c4)CC3)CC2)cc(OC)c1OC (mixture of isomers)
6.46	COc1cc(CCC(=O)O[C@H]2CC[C@@H](N(C)[C@H]3CC[C@H](OC(=O)c4cc(OC)c(OC)c(OC)c4)CC3)CC2)cc(OC)c1OC (mixture of isomers)
6.21	COc1cc(CCC(=O)O[C@H]2CC[C@H](N(C)[C@H]3CC[C@H](OC(=O)c4cc(OC)c(OC)c(OC)c4)CC3)CC2)cc(OC)c1OC (mixture of isomers)
5.96	COc1cc(CCC(=O)O[C@H]2CC[C@@H](N(C)[C@H]3CC[C@@H](OC(=O)c4cc(OC)c(OC)c(OC)c4)CC3)CC2)cc(OC)c1OC

More lines, now with the values behind:

SMILES	pIC50
COc1cc(C#CC(=O)O[C@H]2CC[C@H](N(C)[C@H]3CC[C@H](OC(=O)c4cc(OC)c(OC)c(OC)c4)CC3)CC2)cc(OC)c1OC	7.15
COc1cc(C#CC(=O)O[C@H]2CC[C@H](N(C)[C@H]3CC[C@@H](OC(=O)c4cc(OC)c(OC)c(OC)c4)CC3)CC2)cc(OC)c1OC (mixture of isomers)	7.10
COc1cc(C#CC(=O)O[C@H]2CC[C@@H](N(C)[C@H]3CC[C@H](OC(=O)c4cc(OC)c(OC)c(OC)c4)CC3)CC2)cc(OC)c1OC (mixture of isomers)	7.70
COc1cc(/C=C/C(=O)O[C@H]2CC[C@H](N(C)[C@H]3CC[C@@H](OC(=O)c4cc(OC)c(OC)c(OC)c4)CC3)CC2)cc(OC)c1OC (mixture of isomers)	7.04
COc1cc(C#CC(=O)O[C@H]2CC[C@@H](N(C)[C@H]3CC[C@@H](OC(=O)c4cc(OC)c(OC)c(OC)c4)CC3)CC2)cc(OC)c1OC (mixture of isomers)	7.15
